Test results published in patent US20100048686A1, “Perfume Composition For Temperature Sense Control, Sense Control Article, Sense Control Method, And Perfume Map” (SHISEIDO CO., LTD., priority 2003, published 2010).

Tests used:
Assay type in all cases: in vivo, human
test subjects [1] = assay: cream temperature sense and usability/skin feel with scented cotton versus no aroma; parameters: key to Absorption into skin / Youthfulness of skin / Stickiness of skin: five-point scale, 5 = I agree to 1 = I disagree; conditions: for effect on temperature sense (raising or lowering) / perceived usability/skin feel, heavy-spreading or light-spreading / perceived usability/skin feel, moist or fresh: result in words; for Cream spreading (heavy) / Cream spreading (light) / Thickness of cream / Cream temp. sense (warm) / Cream temp. sense (cold) / Skin tightness / Absorption into skin / Firmness of skin / Non-stickiness of skin / Plumpness of skin / Skin freshness / Skin moistness / Skin smoothness / Skin suppleness / Stickiness of skin / Youthfulness of skin: average; for Cream spreading (heavy) / Cream spreading (light) / Thickness of cream / Absorption into skin / Firmness of skin / Non-stickiness of skin / Plumpness of skin / Skin freshness / Skin moistness / Skin smoothness / Skin suppleness / Stickiness of skin / Youthfulness of skin: five-point scale 5 to 1; for Cream temp. sense (warm): five-point scale 5 warm to 1 cold; for Cream temp. sense (cold): five-point scale, unscented cream, aroma smelled from cotton; for Skin tightness: five-point scale 5 (I agree) to 1 (I disagree)
Protocol: Just as with the survey conducted for temperature sense above, 17 or 18 women 20 to 24 years of age were selected for this test, cotton to which no perfume had been applied was affixed to one arm, and cotton to which perfume had been applied was affixed to the other arm, the arms were each coated with an unscented cream while the subjected smelled the aroma of the cotton, and the subjectively sensed temperature of the cream was assessed on a five-point scale in which 5 was warm, 4 was somewhat warm, 3 was “can't say,” 2 was somewhat cold, and 1 was cold.
Next, the correlation of aroma-induced cosmetic temperature sense, usability, and how the cosmetic actually felt on the skin, and the correlation with the image of the aroma were tested for the above-mentioned 24 different raw material perfumes. […] The aroma image was assessed on a seven-point scale from 0 to 6, while the usability/skin feel was assessed on a five-point scale from 5 (“I agree”) to 1 (“I disagree”). In addition to assessing usability, the impression of the aroma of the perfume was also assessed at the same time. To prevent the perfume from modifying the cream, a method was employed in which the perfume component was not directly added to the cream, but was instead applied to the cotton and smelled.
The following wording was selected for usability/skin feel. • How well a cream spreads: light to heavy • Absorption into the skin: fast to slow • Makes the skin look youthful?: yes to no • Makes the skin feel sticky?: yes to no • Makes the skin feel fresh?: yes to no • Makes the skin feel moist?: yes to no • Makes the skin feel non-sticky?: yes to no • Makes the skin feel smooth?: yes to no • Makes the skin feel supple?: yes to no • Makes the skin feel tight?: yes to no • Each of these was assessed on a five-point-scale. • For impressions of aroma, words that readily express the characteristics of an aroma, and four different words (natural, rich, tender, and sharp) were selected as generic terms from among sensory adjectives and emotional adjectives used to express the five senses. Each generic term encompasses specific aroma impression words. For example, “natural” encompasses impression expressions such as transparent, bright, natural, [3] pure, etc.; “rich” encompasses thick, sultry, mature, glossy, sexy, etc.; “tender” encompasses mild, sweet, gentle, graceful, etc; and “sharp” encompasses bracing, sharp, cool, etc. […] However, the words used to express usability/skin feel and the words used to express impressions of aroma are nothing more than examples, and [the present invention] is not limited to or by these words.

test subjects [2] = assay: subjectively sensed temperature of constant-temperature water on the hands while smelling an aroma; conditions: 28° C. water, seven-point scale 7 hot to 1 extremely cold, 12 test subjects
Protocol: As a result of various research, the inventors discovered that the aroma given off by a specific perfume component can change the temperature subjectively sensed by a person (temperature sense). 12 test subjects put there hands into water held at a constant temperature, and the subjectively sensed temperature of the water was assessed on a seven-point scale in which 7 was hot, 6 was warm, 5 was somewhat warm, 4 was “can't say,” 3 was somewhat cold, 2 was cold, and 1 was extremely cold. The same 12 test subjects were asked to smell a peppermint aroma while once again putting their hands into water held at a constant temperature, and the subjectively sensed temperature of the water was assessed on a seven-point scale. The same experiment was repeated by raising the water temperature one degree at a time, and the testers looked for the temperature at which the assessment given under conditions of smelling the peppermint aroma was the same as the assessment given under conditions of no aroma at 28° C. […]
Also, to examine the change in temperature sense with and without aroma, the 12 test subjects put their hands in water with a temperature of 28° C., and the subjectively sensed temperature was assessed on a seven-point scale in the same manner as above. […]

test subjects [3] = assay: temperature sense of a space (clear boxes with and without aroma); conditions: face put into box with aroma versus box without; FIG. 7; result in words
Text: Also, it is possible to change the temperature sense of a person located in a specific space by dispersing in that space, by volatilization or another such means, a perfume composition containing the above-mentioned perfume component capable of changing a person's temperature sense, and having the person smell the aroma. To test this, a clear box containing scented paper and another clear box containing unscented paper were readied, and an experiment was conducting by having a test subject put his or her face into each of the boxes and compare the temperature sense of the space. […] FIG. 5 is a graph of the assessment results, and it can be seen that the temperature sense of a person located in a space can be changed by aroma. When the perfume composition is dispersed in the space so that the person will smell it, the concentration of the aroma is preferably about 0.01 to 10 ppm. With peppermint oil, for instance, about 0.4 ppm is favorable. […] The test subject put his or her face into first one box and then the other and compared the temperature sense of the space. This experiment was conducted for three different aromas, namely, peppermint, bergamot, and vanillin. A lid 6 that could be opened and closed was provided to the top of each of the boxes 1 and 2. The test subjects and experiment conditions were the same as discussed above. […]

test subjects [4] = assay: sebum content of the cheeks (sebumeter) with scented cotton under nostrils; conditions: room temperature 23 degrees, humidity 46%
Protocol: (§1) 12 female test subjects 20 to 24 years of age were asked to wash their face and attach a piece of scented cotton under their nostrils, which was left alone for a few minutes at a room temperature of 23 degrees and a humidity of 46%, after which the moisture content (corneometer) and sebum content (sebumeter) of the cheeks were measured.

test subjects [5] = assay: moisture content of the cheeks (corneometer) with scented cotton under nostrils; conditions: room temperature 23 degrees, humidity 46%
Protocol: as §1

| Molecule | effect on temperature sense (raising or lowering) (test subjects [1]) | perceived usability/skin feel, heavy-spreading or light-spreading (test subjects [1]) | perceived usability/skin feel, moist or fresh (test subjects [1]) | Cream spreading (heavy) (test subjects [1]) | Cream spreading (light) (test subjects [1]) | Thickness of cream (test subjects [1]) | Cream temp. sense (warm) (test subjects [1]) | Cream temp. sense (cold) (test subjects [1]) | other results |
| --- | --- | --- | --- | --- | --- | --- | --- | --- | --- |
| CC1(C)CCCC2(C)C1CCC1(C)OCCC12 (stereo not drawn) [3α,6,6,9α-tetramethyldodecahydronaphtho[2,1-b]furan] | capable of raising temperature sense | light-spreading usability/skin feel | moist usability/skin feel |  |  |  |  |  |  |
| Cc1occc(=O)c1O [maltol] | capable of raising temperature sense |  |  |  |  |  |  |  |  |
| L-carvone |  |  |  |  |  |  |  |  | subjectively sensed temperature of the water, average assessment (test subjects [2]): 4 |
| COc1cc(C=O)ccc1O [C, vanillin] | capable of raising temperature sense |  |  | 3.1 | 2.9 | 2.8 | 4.1 | 1.9 | sense of warmth or cold inside the box (test subjects [3]): gave a warm sensation; Sebum content (test subjects [4]): no difference attributable to aroma; Moisture content (test subjects [5]): 69.3 (increase) |
| Cc1ccc2c(c1)OCC(=O)CO2 [7-methyl-3,4-dihydro-(2H)-1,5-benzodioxepin-3-one] | capable of lowering temperature sense | light-spreading usability/skin feel | fresh usability/skin feel |  |  |  |  |  |  |
| CC(C=O)Cc1ccc(C(C)(C)C)cc1 (stereo not drawn) [B, 4-tert-butyl-α-methylhydroxycinnamic aldehyde] | capable of raising temperature sense | light-spreading usability/skin feel | moist usability/skin feel | 2.2 | 3.8 | 2.5 | 3.4 | 2.6 | Skin tightness (test subjects [1]): 3.3; Absorption into skin (test subjects [1]): 3.5; Firmness of skin (test subjects [1]): 2.9; Non-stickiness of skin (test subjects [1]): 2.5; Plumpness of skin (test subjects [1]): 2.2; Skin freshness (test subjects [1]): 3.2; Skin moistness (test subjects [1]): 3.9; Skin smoothness (test subjects [1]): 3.8; Skin suppleness (test subjects [1]): 3.4; Stickiness of skin (test subjects [1]): 3.1; Youthfulness of skin (test subjects [1]): 3.8 |
| O=Cc1ccc2c(c1)OCO2 [heliotropine] | capable of raising temperature sense | light-spreading usability/skin feel | moist usability/skin feel |  |  |  |  |  |  |
| CC1COCc2cc3c(cc21)C(C)(C)C(C)C3(C)C (centres unmarked) [4,6,6,7,8,8-hexamethyl-1,3,4,6,7,8-hexahydrocyclopentabenzopyran] | capable of raising temperature sense | light-spreading usability/skin feel | moist usability/skin feel |  |  |  |  |  |  |
| CC(=O)/C=C/C1=C(C)CCCC1(C)C [β-ionone] | capable of raising temperature sense | light-spreading usability/skin feel | moist usability/skin feel |  |  |  |  |  |  |
| COC(=O)c1ccccc1N=CCC(C)CCCC(C)(C)O (centres unmarked) [methyl-N-3,7-dimethyl-7-hydroxyoctylidene-anthranilate] | capable of lowering temperature sense | heavy-spreading usability/skin feel | fresh usability/skin feel |  |  |  |  |  |  |
| CCCCCCCC1CCC(=O)O1 (centres unmarked) [G, γ-undecalactone] | capable of raising temperature sense |  |  | 2.2 | 3.8 | 2.1 | 3.2 | 2.8 |  |
| CC1=CC(C)C(C=O)CC1 (centres unmarked) [E, 2,4-dimethyl-3-cyclohexenyl carboxyaldehyde] | capable of lowering temperature sense | light-spreading usability/skin feel | fresh usability/skin feel | 2.7 | 3.3 | 3.1 | 2.5 | 3.5 | Skin tightness (test subjects [1]): 2.4; Absorption into skin (test subjects [1]): 2.9; Firmness of skin (test subjects [1]): 2.8; Non-stickiness of skin (test subjects [1]): 2.6; Plumpness of skin (test subjects [1]): 2.3; Skin freshness (test subjects [1]): 3.1; Skin moistness (test subjects [1]): 3.3; Skin smoothness (test subjects [1]): 3.8; Skin suppleness (test subjects [1]): 3.4; Stickiness of skin (test subjects [1]): 3.2; Youthfulness of skin (test subjects [1]): 3.7 |
| CC(C)[C@@H]1CC[C@@H](C)C[C@H]1O [L-menthol] |  |  |  |  |  |  |  |  | subjectively sensed temperature of the water, average assessment (test subjects [2]): 4.125 |
